Patent US11857535B2, “Methods of treating mutant lymphomas” (Kymera Therapeutics, Inc., priority 2020, dated 2024)

Experiments:
lymphocytes = experiment: Lymphopenia studies (Example 8, FIG. 5); assay type: in vivo
[1] = NHP clinical observations and body weight (tolerability); assay type: in vivo, Cynomolgus monkeys
Description: Body weight measurement at pre-dose on Day 1, Day 4, Day 7, Day 14. Monitor clinical observation of the animal for 14 days post dose.
Twice daily (approximately 9:30 a.m. and 4:00 p.m.), Cage-side observations for general health and appearance will be done. Animals will be given physical examination prior to study initial to confirm animals' health. Day of dosing: before and after dosing, and before and after each PK sample time point through 24 hour PK sample. Twice daily thereafter. General condition, behavior, activity, excretion, respiration or other unusual observations noted throughout the study will be recorded in the raw data. When necessary, additional clinical observations will be performed and recorded.
All animals will be weighed on the dosing day prior to dosing to determine the dose volume to be administered, and again weekly thereafter.
All animals will be weighed on the dosing day prior to dosing to determine the dose volume to be administered, and again weekly after.

[2] = system: OCI-LY10 human diffuse large B-cell lymphoma model; experiment: Combination xenograph studies in OCI-LY10 model; assay type: in vivo, mouse
Description: Study Purpose: The objective was to evaluate the efficacy of Compound A combinations in the OCI-LY10 human diffuse large B-cell lymphoma model in female CB-17 SCID mice.
Cell Culture: The OCI-LY10 tumor cells were maintained as a suspension in RPMI1640 medium supplemented with 10% fetal bovine serum and 100 μg/mL penicillin/100 μg/mL streptomycin (study 1) or 1% Antibiotic-Antimycotic (study 2) at 37° C. in an atmosphere of 5% CO2 in air. The tumor cells were routinely subcultured twice weekly by trypsin-EDTA treatment. The cells growing in an exponential growth phase were harvested and counted for tumor inoculation.
Animals: CB-17 SCID, female, 6-8 weeks, weighing approximately 18-22 g. In total of 56 animals (study 1) and 66 animals (study 2) were used in the study.
Tumor Inoculation: Each mouse was inoculated subcutaneously at the right flank with OCI-LY10 tumor cells (10×10^6) in 0.2 mL of PBS with matrigel for tumor development. The treatments were started when the tumor sizes reach 100 mm^3 for the study.
3 days prior to treatment initiation, augment diet gel/supplement to all study animals. Compound are diluted to required dosing volume with 0.9% saline
R-CHOP Dosing Sequence: Rituxan, IP; Doxorubicin, IV 15 min post Rituxan; Vincristine, IV 15 min post Doxorubicin; Cyclophosphamide, IV 15 min post Vincristine; Prednisone, PO 15 min post Cyclophosphamide.
Assignment to Groups: Before commencement of treatment, all animals were weighed and the tumor volumes measured. Since the tumor volume can affect the compound efficacy, mice were assigned into groups using an Excel-based randomization procedure performing stratified randomization based upon their tumor volumes.

Question: Which results are given for CC(C)(O)c1cc2nc([C@H]3CC[C@H](CN4CC5(CC(CCNc6cccc7c6C(=O)N(C6CCC(=O)NC6=O)C7=O)C5)C4)CC3)sc2cc1NC(=O)c1cccc(C(F)(F)F)n1 (stereo partly drawn) [Compound A, N-(2-((1r,4r)-4-((6-(2-((2-(2,6-dioxopiperidin-3-yl)-1,3-dioxoisoindolin-4-yl)amino)ethyl)-2-azaspiro[3.3]heptan-2-yl)methyl)cyclohexyl)-5-(2-hydroxypropan-2-yl)benzo[d]thiazol-6-yl)-6-(trifluoromethyl)picolinamide]?
Answer: Lymphocyte declines (lymphocytes; IV): Lymphocyte declines are transient; Lymphocyte declines (lymphocytes; PO): Lymphocyte declines are transient; Lymphopenia on intermittent dosing (lymphocytes; intermittent dosing): transient; Lymphopenia: recovery by day (lymphocytes; intermittent dosing): 7-14 D; GI events ([1]; IV, exposures up to 4.4X MED): No observed GI events; Hematuria ([1]; NHP, IV): Not observed in NHP: slower; Clinical Observations ([1]; NHP, IV 5 mg/kg, D1, 2): None; Clinical Observations ([1]; NHP, IV 10 mg/kg, D1): None; Clinical Observations ([1]; NHP, IV 10 mg/kg, D1, 2): None; Clinical Observations ([1]; NHP, IV 20 mg/kg, D1): None; Clinical Observations ([1]; NHP, PO 10 mg/kg, D1, D4): Diarrhea; Clinical Observations ([1]; NHP, PO 25 mg/kg, D1, D2): Diarrhea, Emesis; Clinical Observations ([1]; NHP, PO 25 mg/kg, D1, D4): Diarrhea, Emesis; Clinical Observations ([1]; NHP, PO 50 mg/kg, D1): Diarrhea; Clinical Observations ([1]; NHP, PO 50 mg/kg, D1, D4): Diarrhea, Emesis; Clinical Observations ([1]; NHP, PO 100 mg/kg, D1): Diarrhea, Emesis; GI events ([1]; PO, observed in all TA PO dose groups, likely tolerable): GI events (e.g., diarrhea and emesis); combination effect with venetoclax ([2]; mutant MYD88 OCI-Ly10 xenographs, Bliss independent method, FIG. 11): supra-additive; combination effect with rituximab ([2]; mutant MYD88 OCI-Ly10 xenographs, Bliss independent method, FIG. 12 upper graph): supra-additive; combination effect with ibrutinib ([2]; mutant MYD88 OCI-Ly10 xenographs, intermittent schedules, FIG. 10): additive; combination with rituximab in relapsed tumors ([2]; tumors that relapsed following initial R-CHOP treatment, FIG. 12 lower graph): strong tumor regressions
